The text below walks through data of patent US20100272824A1, “COMPOSITIONS AND METHODS FOR PREVENTING AND MONITORING DISEASE” (The Texas A&M University System, priority 2009, published 2010).

In the assay the test system is colonocytes. Briefly: In situ apoptosis (TUNEL assay), apoptotic index. The assay is classed as in vivo, rat. The following applies: pectin intake compared to cellulose intake, ACF/promotion stage, radiation study. As to the method: Apoptosis was measured by the binding of TdT-mediated UTP-biotin nick end labeling (TUNEL assay) to fragmented pieces of DNA using sections (4 μm) of PFA-fixed, paraffin-embedded tissue. Apoptotic cells with condensed chromatin, apoptotic bodies and intense brown staining were counted in 50 crypt columns for each animal. The apoptotic index is 100 times the mean number of apoptotic cells per crypt column divided by the total number of cells per crypt column. Chang et al., “Predictive value of proliferation, differentiation and apoptosis as intermediate markers for colon tumorigenesis” Carcinogenesis 18:721-730 (1997).
Data were analyzed using ANOVA to determine the effect of diet (FO/P vs. CO/C) on apoptosis, high multiplicity ACF, and proliferative zone (SAS Institute Inc.). Colon tumor incidence was analyzed by Chi square analysis and reported as percentage of rats bearing tumors (SAS Institute Inc.).

Take pectin: the apoptosis result was “induced apoptosis”. Further, where the note is “listed as Pectin”, the apoptosis result was “induced the levels of apoptosis”.
